Consider 20 compounds from publication PMC4194234 (Psychopharmacology, 2014).

The target in experiment [1] is T1, Norepinephrine Transporter (NET) (Rattus norvegicus, UniProt Q63380). Briefly: [3H]NE uptake inhibition, rat brain synaptosomes. The format is biochemical.
For experiment [2], the target named is T2, 5-HT2A receptor (Homo sapiens, UniProt P28223). Briefly: cell-based. The note with it: for Emax: CHO-K1, read-out: 5-HT2A β-arrestin Emax; for 5-HT2A β-arrestin Emax: β-arrestin recruitment, mean ± SEM, three experiments in duplicate; for 5-HT2A β-arrestin Emax / 5-HT2A β-arrestin recruitment activity (in words): CHOk1; for 5-HT2A β-arrestin recruitment activity (in words): screened at 10 µM. The format is cell-based. (In general: Recruitment of arrestin is a read-out of receptor activation apart from second messengers.)
Target sequence in this assay (P28223 whole entry): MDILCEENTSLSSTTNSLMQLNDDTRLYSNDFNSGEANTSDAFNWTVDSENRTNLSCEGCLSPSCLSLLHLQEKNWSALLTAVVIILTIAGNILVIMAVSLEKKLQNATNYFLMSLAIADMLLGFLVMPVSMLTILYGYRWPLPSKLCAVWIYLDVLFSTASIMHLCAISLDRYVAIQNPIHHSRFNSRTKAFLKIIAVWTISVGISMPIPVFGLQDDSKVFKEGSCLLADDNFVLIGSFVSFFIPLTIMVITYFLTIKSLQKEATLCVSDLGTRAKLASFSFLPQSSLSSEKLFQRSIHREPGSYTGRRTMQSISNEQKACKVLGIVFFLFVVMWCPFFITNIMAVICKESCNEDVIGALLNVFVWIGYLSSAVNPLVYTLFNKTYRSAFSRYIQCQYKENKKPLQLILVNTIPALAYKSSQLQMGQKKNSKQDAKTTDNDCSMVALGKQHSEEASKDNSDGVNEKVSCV
Target sequence in this assay (P32121 whole entry, further chain): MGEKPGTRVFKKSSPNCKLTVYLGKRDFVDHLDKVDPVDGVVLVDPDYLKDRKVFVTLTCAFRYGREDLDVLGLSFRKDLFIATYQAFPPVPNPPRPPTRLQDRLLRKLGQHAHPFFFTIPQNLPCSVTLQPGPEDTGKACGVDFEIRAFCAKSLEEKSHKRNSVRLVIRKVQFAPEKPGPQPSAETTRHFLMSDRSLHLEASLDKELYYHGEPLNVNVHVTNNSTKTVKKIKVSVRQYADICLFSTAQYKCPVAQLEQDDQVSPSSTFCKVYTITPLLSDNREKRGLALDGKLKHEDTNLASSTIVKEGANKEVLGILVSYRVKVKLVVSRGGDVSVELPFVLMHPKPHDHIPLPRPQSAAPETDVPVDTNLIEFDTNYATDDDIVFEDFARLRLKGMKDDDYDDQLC

In experiment [3] the target is T3, SERT (Rattus norvegicus, UniProt P31652). Briefly: [3H]5-HT uptake inhibition, rat brain synaptosomes. The note with it: for 5-HT uptake inhibitor activity at SERT (in words): rat brain synaptosomes.
In experiment [4] the target is T4, 5-HT1A receptor (Homo sapiens, UniProt P08908).
T4 sequence (P08908 1-422): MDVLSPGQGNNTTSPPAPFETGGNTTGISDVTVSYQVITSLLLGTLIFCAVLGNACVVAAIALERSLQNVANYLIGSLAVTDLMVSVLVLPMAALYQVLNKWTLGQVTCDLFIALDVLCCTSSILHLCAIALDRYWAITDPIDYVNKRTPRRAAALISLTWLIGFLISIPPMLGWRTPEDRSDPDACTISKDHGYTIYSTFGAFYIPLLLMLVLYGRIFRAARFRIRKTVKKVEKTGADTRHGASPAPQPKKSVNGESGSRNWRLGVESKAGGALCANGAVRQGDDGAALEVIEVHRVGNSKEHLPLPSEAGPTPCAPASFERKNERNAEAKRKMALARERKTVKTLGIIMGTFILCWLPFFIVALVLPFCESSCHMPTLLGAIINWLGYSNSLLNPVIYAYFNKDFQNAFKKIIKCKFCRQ
Briefly: 5-HT1A calcium mobilization assay in Gα16-CHO cells. The format is cell-based. The note with it: for 5-HT1A Emax: calcium mobilization, Gα16-CHO, mean ± SEM, three experiments in duplicate. (Calcium flux is commonly read through the fluorescence of an indicator in the cells.)

Experiment [5] addresses T5, Dopamine Transporter (DAT) (Rattus norvegicus, UniProt P23977). Briefly: [3H]DA uptake inhibition, rat striatum synaptosomes.
The test system of experiment [6] is humans. The note with it: tabulated from anecdotal reports in TiHKAL, ref Shulgin and Shulgin 1997; cited from earlier work.
In experiment [7] the target is T2, 5-HT2A receptor. Briefly: cell-based. The format is cell-based. The note with it: for 5-HT2A agonist activity in calcium mobilization assay (in words) / 5-HT2A Emax: HEK293; for Emax: HEK293, read-out: 5-HT2A Emax; for 5-HT2A Emax: calcium mobilization, mean ± SEM, three experiments in duplicate.
Target sequence in this assay (P28223 whole entry): as the sequence (P28223 whole entry) above
In experiment [8] the target is T3, SERT. Briefly: SERT-mediated release, rat brain synaptosomes. The note with it: for 5-HT releasing activity at SERT (in words): rat brain synaptosomes.
Experiment [9] concerns the target T1, Norepinephrine Transporter (NET). Briefly: NET-mediated release, rat brain synaptosomes. Type of experiment: biochemical.
The target of experiment [10] is T5, Dopamine Transporter (DAT). Briefly: DAT-mediated release, rat striatum synaptosomes.

Where two headings read alike, the source gives them in different places. A value given as a limit tells only on which side of the number the result lay.

T5 sequence (P23977 whole entry): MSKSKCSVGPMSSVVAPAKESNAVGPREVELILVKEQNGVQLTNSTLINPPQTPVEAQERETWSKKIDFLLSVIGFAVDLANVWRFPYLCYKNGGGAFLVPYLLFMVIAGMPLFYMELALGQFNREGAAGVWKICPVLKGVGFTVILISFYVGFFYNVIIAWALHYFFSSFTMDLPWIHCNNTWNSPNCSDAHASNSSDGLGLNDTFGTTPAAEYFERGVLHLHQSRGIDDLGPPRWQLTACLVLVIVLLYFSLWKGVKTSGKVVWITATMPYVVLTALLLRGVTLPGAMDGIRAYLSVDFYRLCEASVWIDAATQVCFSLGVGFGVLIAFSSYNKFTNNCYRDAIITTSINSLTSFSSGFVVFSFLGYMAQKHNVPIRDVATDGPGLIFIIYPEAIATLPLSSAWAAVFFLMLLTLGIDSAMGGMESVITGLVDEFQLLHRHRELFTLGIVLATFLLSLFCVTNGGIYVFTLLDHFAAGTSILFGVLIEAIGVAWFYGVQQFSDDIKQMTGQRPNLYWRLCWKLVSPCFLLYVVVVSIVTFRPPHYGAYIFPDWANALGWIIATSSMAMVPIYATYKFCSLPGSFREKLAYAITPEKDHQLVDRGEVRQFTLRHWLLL
T1 sequence (Q63380 1-617): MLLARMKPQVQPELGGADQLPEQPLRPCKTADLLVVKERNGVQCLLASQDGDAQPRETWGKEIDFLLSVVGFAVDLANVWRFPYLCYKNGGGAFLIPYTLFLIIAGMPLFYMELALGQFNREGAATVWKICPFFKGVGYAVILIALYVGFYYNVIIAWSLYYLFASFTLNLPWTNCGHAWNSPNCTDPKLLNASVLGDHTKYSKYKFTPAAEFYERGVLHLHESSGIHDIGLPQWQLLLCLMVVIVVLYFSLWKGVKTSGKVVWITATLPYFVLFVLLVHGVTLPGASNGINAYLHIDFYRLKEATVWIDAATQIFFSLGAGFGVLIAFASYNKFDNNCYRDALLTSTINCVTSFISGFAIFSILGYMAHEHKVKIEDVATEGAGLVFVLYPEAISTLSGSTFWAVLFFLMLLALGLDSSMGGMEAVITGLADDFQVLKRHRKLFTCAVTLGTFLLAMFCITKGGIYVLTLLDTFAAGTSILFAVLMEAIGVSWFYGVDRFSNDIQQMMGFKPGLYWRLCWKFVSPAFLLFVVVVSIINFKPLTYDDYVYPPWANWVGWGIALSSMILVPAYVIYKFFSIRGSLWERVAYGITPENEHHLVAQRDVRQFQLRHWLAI
T3 sequence (P31652 whole entry): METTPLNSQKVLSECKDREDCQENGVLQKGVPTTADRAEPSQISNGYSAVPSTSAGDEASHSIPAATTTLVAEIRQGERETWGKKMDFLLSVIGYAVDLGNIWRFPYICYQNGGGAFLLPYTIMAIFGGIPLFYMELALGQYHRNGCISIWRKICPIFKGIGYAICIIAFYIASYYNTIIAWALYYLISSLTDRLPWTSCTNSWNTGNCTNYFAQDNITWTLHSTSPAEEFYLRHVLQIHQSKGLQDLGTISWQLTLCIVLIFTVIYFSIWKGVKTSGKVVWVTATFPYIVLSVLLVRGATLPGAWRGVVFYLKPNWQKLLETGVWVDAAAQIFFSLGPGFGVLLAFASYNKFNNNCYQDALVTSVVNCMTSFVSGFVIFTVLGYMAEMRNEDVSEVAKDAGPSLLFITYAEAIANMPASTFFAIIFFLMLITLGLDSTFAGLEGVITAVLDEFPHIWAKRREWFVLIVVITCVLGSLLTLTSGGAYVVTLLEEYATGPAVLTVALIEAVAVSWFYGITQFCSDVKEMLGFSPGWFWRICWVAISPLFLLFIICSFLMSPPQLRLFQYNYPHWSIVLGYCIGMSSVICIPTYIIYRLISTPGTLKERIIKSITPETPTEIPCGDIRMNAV

In the case of `COc1ccc2[nH]cc(CCN(C)C)c2c1` [Compound 7, N,N-dimethyl-5-methoxytryptamine], the IC50 (commonly the concentration at which inhibition is half-maximal) in experiment [1] was above 10 µM; in experiment [3], 2.18 ± 0.222 µM; in experiment [5] it was above 10 µM. The Emax (as a rule, the greatest response seen or fitted, relative to the assay's reference) in experiment [2] was determined as 56 ± 6%; in experiment [7], 101 ± 4%. In addition, the “5-HT1A Emax” value in experiment [4] is listed as 68 ± 3%. Further, in [6], the “Psychoactive Effects” value is given as “Time distortions, stoned feeling, hallucinogenic at high doses”. In [7], the “5-HT2A agonist activity in calcium mobilization assay (in words)” value was “low nanomolar potency”.
Regarding `NCCc1c[nH]c2ccccc12` [Compound 12, Tryptamine], in [2], the Emax worked out at 108 ± 16%. Moreover, the “5-HT releasing activity at SERT (in words)” value (“5-HT releasing activity” below) in experiment [8] is “releasers”. Moreover, the “Psychoactive Effects” value in experiment [6] is “Psychoactive, short acting due to metabolism, increased blood pressure, similar to LSD”.
In the case of `CCN(CC)CCc1c[nH]c2ccc(OC)cc12` [Compound 26], the “5-HT2A β-arrestin Emax” value in experiment [2] was 64 ± 8%. Moreover, in experiment [4], the “5-HT1A Emax” value was found to be 67 ± 2%. Further, the “Psychoactive Effects” value in experiment [6] is on record as “Auditory changes, negative experiences, anxiety”. In addition, in experiment [7], the “5-HT2A agonist activity in calcium mobilization assay (in words)” value was “low nanomolar potency” and the “5-HT2A Emax” value was found to be 101 ± 0.8%.
With `COc1ccc2[nH]cc(CCN(C)C(C)C)c2c1` [Compound 2, N-isopropyl-N-methyl-5-methoxytryptamine], the half-inhibitory concentration (IC50) in [1], in experiment [3] and in experiment [5] was above 10 µM each time. Besides, the values for the EC50 in experiment [2] and in experiment [4] were 0.566 ± 0.11 µM and above 10 µM, respectively. Also, the maximal response (Emax) in experiment [2] amounted to 82 ± 13%; in experiment [7] it was 101 ± 3%. Moreover, the “5-HT uptake inhibitor activity at SERT (in words)” value in [3] is “totally inactive”. Moreover, in experiment [6], the “Psychoactive Effects” value is recorded as “Fast onset, stimulates conceptual thought, depersonalization”. In addition, in experiment [7], the “5-HT2A agonist activity in calcium mobilization assay (in words)” value was “low nanomolar potency”.
As to `CCNCCc1c[nH]c2ccc(OC)cc12` [Compound 18, 5-methoxy-N-ethyltryptamine], the EC50 (in general, the concentration at which the effect is half-maximal) in [9] was above 10 µM; in [2], 0.568 ± 0.174 µM; in experiment [8] it was 0.284 ± 0.0416 µM; in experiment [4], 0.262 ± 0.027 µM; in experiment [10], above 10 µM. Besides, the Emax was 103 ± 12% in experiment [2] and 112 ± 3% in experiment [7]. Moreover, the “5-HT2A β-arrestin recruitment activity (in words)” value in experiment [2] was “fully efficacious”. Besides, the “5-HT releasing activity” value in [8] was “releasers”.
Turning to `CNCCc1c[nH]c2ccccc12` [Compound 14, N-methyltryptamine], the EC50 in [2] and in experiment [4] was above 10 µM in each case. Further, the “5-HT2A β-arrestin recruitment activity (in words)” value in [2] was “inactive”.
As for `COc1ccc2[nH]cc(CCN)c2c1` [Compound 25], the “5-HT1A Emax” value in experiment [4] is 66 ± 4%. The “Psychoactive Effects” value in experiment [6] was “Not particularly active, possibly due to metabolism similar to 12”.
Turning to `CN(C)CCc1c[nH]c2cccc(O)c12` [Compound 24, Psilocin], the IC50 was above 10 µM in experiment [1], 0.662 ± 0.041 µM in experiment [3] and above 10 µM in experiment [5]. Also, the “Psychoactive Effects” value in experiment [6] is on record as “Very visual, lots of colors, better at night”. Further, the Emax in [7] was 76 ± 7%.
On to `CNCCc1c[nH]c2ccc(OC)cc12` [Compound 17], for which, in experiment [2], the “5-HT2A β-arrestin Emax” value is recorded as 66 ± 9%. For the same compound, in [8], the “5-HT releasing activity” value was “releasers”. Besides, the “5-HT1A Emax” value in [4] stood at 72 ± 4%. Moreover, the “5-HT2A Emax” value in [7] is 84 ± 20%.
Consider `COc1ccc2[nH]cc(CCNC(C)C)c2c1` [Compound 27], for which, in experiment [2], the “5-HT2A β-arrestin Emax” value was 99 ± 6%. Also, in experiment [7], the “5-HT2A agonist activity in calcium mobilization assay (in words)” value is given as “low nanomolar potency” and the “5-HT2A Emax” value was 101 ± 2%.
Turning to `CN(C)CCc1c[nH]c2ccc(O)cc12` [Compound 16, N,N-dimethyl-5-hydroxytryptamine], the EC50 in experiment [9] is above 10 µM; in experiment [4], 0.366 ± 0.067 µM; in experiment [10], above 10 µM. For the same compound, the “Psychoactive Effects” value in [6] was “Some visuals (lines and dots), tightness in chest, nausea, breathing issues, mind feels crowded”.
Turning to `CN(C)CCc1c[nH]c2ccccc12` [Compound 6, N,N-dimethyltryptamine], the EC50 in experiment [9] was 4.17 ± 0.317 µM; in [2] it was above 10 µM; in [8], 0.114 ± 0.015 µM; in [10], above 10 µM. Besides, in experiment [2], the “5-HT2A β-arrestin recruitment activity (in words)” value is “inactive”. In addition, in [6], the “Psychoactive Effects” value is “Heavy intoxicant and hallucinogen, visuals, intense colors”. For the same compound, the maximum response (Emax) in experiment [7] stood at 83 ± 0.4%.
On to `CC(N)Cc1c[nH]c2ccccc12` (stereo not drawn) [Compound 13], for which the “Psychoactive Effects” value in experiment [6] is listed as “Psychedelic but varied, fast/slow onset, good/bad experiences, long lasting, no visuals, speed-like, tachycardia, jaw clenching”.
Turning to `COc1ccc2[nH]cc(CCN(C(C)C)C(C)C)c2c1` [Compound 1, N,N-diisopropyl-5-methoxytryptamine], the IC50 in [1] was above 10 µM; in experiment [3] it was 0.646 ± 0.048 µM; in experiment [5] it was above 10 µM. Besides, the maximal effect (Emax) in experiment [2] came to 124 ± 12%; in [7], 109 ± 5%. In addition, the concentration for a half-maximal effect (EC50) in [4] is above 10 µM. The “Psychoactive Effects” value in experiment [6] is reported as “Erotic, senses distorted, short-lived, could not make intuitive leaps”. Besides, in experiment [7], the “5-HT2A agonist activity in calcium mobilization assay (in words)” value is recorded as “low nanomolar potency”.
Take `CC(C)NCCc1c[nH]c2ccccc12` [Compound 20]: the “Psychoactive Effects” value in experiment [6] is “Light-headed intoxicant, pleasant buzz”. The “5-HT2A Emax” value in experiment [7] came to 96 ± 3%.
In the case of `CC(C)N(CCc1c[nH]c2ccccc12)C(C)C` [Compound 22], in [6], the “Psychoactive Effects” value is recorded as “Auditory, not visual, heard voices, sounds had “golden spikes”, religious overtones”. The “5-HT2A Emax” value in experiment [7] is reported as 110 ± 2%.
Take `CC(C)N(C)CCc1c[nH]c2ccccc12` [Compound 23]: the “5-HT uptake inhibitor activity at SERT (in words)” value in experiment [3] was “totally inactive”. The “Psychoactive Effects” value in experiment [6] is “Mild hallucinations, stimulant, fast onset, psychedelic”. The “5-HT2A Emax” value in experiment [7] is on record as 74 ± 5%.
Regarding `CCCN(CCC)CCc1c[nH]c2ccc(OC)cc12` [Compound 28], the “5-HT2A β-arrestin Emax” value in experiment [2] was determined as 68 ± 2%. In [4], the “5-HT1A Emax” value was determined as 43 ± 5%. In addition, the “Psychoactive Effects” value in [6] is “Comfortable at low doses, oscillating good and bad sounds, negative side dominated as buzz continues”. Also, in experiment [7], the “5-HT2A agonist activity in calcium mobilization assay (in words)” value is reported as “low nanomolar potency” and the “5-HT2A Emax” value was determined as 101 ± 3%.
In the case of `CCCN(CCC)CCc1c[nH]c2ccccc12` [Compound 21], the “5-HT2A β-arrestin Emax” value in experiment [2] came to 63 ± 8%. Besides, the “Psychoactive Effects” value in experiment [6] is “Intensely visual, long lasting, things appear fast, religious experiences”. For the same compound, the “5-HT2A Emax” value in experiment [7] is 97 ± 3%.
On to `CCN(CC)CCc1c[nH]c2ccccc12` [Compound 19], for which the “Fold more potent at SERT uptake inhibition than 5-MeO-DET” value in experiment [3] (DET versus 5-MeO-DET (26)) is 10 fold. Moreover, the “Psychoactive Effects” value in experiment [6] was “Psychoactive, visuals, vertigo”. Moreover, the “5-HT2A Emax” value in experiment [7] is recorded as 90 ± 6%.
